Laboratory results reported in PMC9437101, “Curcumin-based-fluorescent probes targeting ALDH1A3 as a promising tool for glioblastoma precision surgery and early diagnosis” (Communications Biology, 2022).
Where “and” joins values, the source holds several entries; their conditions need not be identical. Equal values may be shown once.

Legend:
[1] = target: T1, ALDH1A3 (Homo sapiens, UniProt P47895); test: IC50 and Ki evaluation, enzymatic inhibition with acetaldehyde; format: biochemical
T1 construct: E. coli BL21 (DE3) were transformed with the full-length expression vector of each isoform; His-tag; made in house; host or cells: E. coli BL21 (DE3)
T1 sequence (P47895 1-512): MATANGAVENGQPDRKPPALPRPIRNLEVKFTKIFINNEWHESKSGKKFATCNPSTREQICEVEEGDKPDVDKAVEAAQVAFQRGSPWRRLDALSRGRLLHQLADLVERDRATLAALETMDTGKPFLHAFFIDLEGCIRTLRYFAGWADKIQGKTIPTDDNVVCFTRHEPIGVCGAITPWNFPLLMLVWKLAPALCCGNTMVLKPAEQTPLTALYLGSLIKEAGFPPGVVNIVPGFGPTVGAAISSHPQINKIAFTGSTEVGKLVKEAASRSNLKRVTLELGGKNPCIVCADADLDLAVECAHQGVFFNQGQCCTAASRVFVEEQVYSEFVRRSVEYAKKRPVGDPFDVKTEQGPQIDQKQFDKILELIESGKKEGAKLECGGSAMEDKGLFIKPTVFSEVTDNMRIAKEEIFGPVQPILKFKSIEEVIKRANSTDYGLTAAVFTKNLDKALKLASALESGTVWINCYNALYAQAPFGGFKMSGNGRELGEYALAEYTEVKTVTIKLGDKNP
Protocol: Initially, the inhibitory activities of our fluorescent probes were screened at a fixed concentration of 50 μM using a Tecan Sunrise 96 Multiplate Reader with Greiner Bio-One 96-UV-Transparent Microplates. The analysis was performed in triplicate in a total volume of 100 μl per well containing 20 mM Tris HCl pH 8.0, 1 mM β-mercaptoethanol, 150 mM KCl, 500 μM NAD^+, […], 2.8 μM hALDH1A and 20 mM acetaldehyde. Afterwards, the inhibitory potency of the fluorescent probes was further investigated, evaluating the IC50 parameter. The enzymatic inhibition assays were performed in triplicate in a total volume of 100 μl per well containing 20 mM Tris HCl pH 8.0, 1 mM β-mercaptoethanol, 150 mM KCl, 500 μM NAD^+, 2.8 μM hALDH1A and 20 mM acetaldehyde in the presence of different probe concentrations, from 200 μM to 1.5625 μM. The DMSO final concentration allowed was up to 15%. Only for ALDH1A3 in complex with Probe 10, the Ki affinity parameter was calculated by performing the analysis in triplicate in a total volume of 100 μl per well containing 20 mM Tris HCl pH 8.0, 1 mM β-mercaptoethanol, 150 mM KCl, 500 μM NAD^+ and 2.8 μM ALDH1As. Due to chemical nature of Probe 10 and Probe 11, we set up the enzymatic assay assuming a competitive inhibition using different compounds concentration, from 200 μM to 1 μM, and different acetaldehyde concentrations, from 20 mM to 2.5 mM. Each reaction mix was preincubated for 10 min at 25 °C before the analysis. The catalytic activity was measured by monitoring the absorbance at 340 nm (εNADH = 6220 M^−^1 cm^−1) for 30 min at 25 °C and the inhibitory parameters were calculated by processing the raw data on SigmaPlot[53].

[2] = target: T2, ALDH1A2 (Homo sapiens, UniProt O94788); test: Fluorescence signal change of probe with recombinant enzyme (cross reaction assay); format: binding; settings: probe 10 μM; for probe fluorescence intensity (normalized): ALDH1A2 100 μM
T2 construct: E. coli BL21 (DE3) were transformed with the full-length expression vector of each isoform; His-tag; made in house; host or cells: E. coli BL21 (DE3)
T2 sequence (O94788 1-518): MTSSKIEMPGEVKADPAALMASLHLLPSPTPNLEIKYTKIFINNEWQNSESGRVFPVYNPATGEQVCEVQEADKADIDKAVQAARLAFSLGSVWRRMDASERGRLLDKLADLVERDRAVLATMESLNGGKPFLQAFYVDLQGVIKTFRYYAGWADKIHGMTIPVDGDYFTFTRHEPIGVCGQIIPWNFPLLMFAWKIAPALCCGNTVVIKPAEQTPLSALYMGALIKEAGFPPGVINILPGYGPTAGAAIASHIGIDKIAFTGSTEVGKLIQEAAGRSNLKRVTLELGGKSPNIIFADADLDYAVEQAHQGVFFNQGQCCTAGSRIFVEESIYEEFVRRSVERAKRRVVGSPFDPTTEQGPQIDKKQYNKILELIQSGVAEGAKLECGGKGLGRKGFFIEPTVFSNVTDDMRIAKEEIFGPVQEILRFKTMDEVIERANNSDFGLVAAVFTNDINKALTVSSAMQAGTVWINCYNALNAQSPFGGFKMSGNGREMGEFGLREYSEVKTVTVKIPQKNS
From the text: All five fluorescent compounds were firstly characterized for their solubility in physiological buffer and for their absorbance values. We then performed a 3D analysis using a TECAN SPARK to simultaneously evaluate the excitation and the emission wavelengths, that were supposed to be similar to the curcumin ones[48]. […] For these reasons, we decided to continue the biochemical characterization on Probe 10 and 11 using the selected parameters (Fig. 2). The fluorescent signal changes for both molecules upon binding to the target, were firstly evaluated with recombinant human ALDH1A3. […] To better characterized our fluorescent compounds, we tested their potential cross-reactivity toward the other two isoforms of the ALDH1A subfamily. […] In addition, a wide range of biologically relevant analytes were tested at a concentration of 100 μM in complex with a fixed concentration of 10 μM of the probe (either probe 10 or probe 11), to make sure that no potential off-target signals could affect the analysis. More specifically, we checked if there were abnormal fluorescence signals that could have been contributed by the presence of biologically relevant compounds, (e.g., biologically relevant amino acids), to buffers and molecules commonly used in experimental procedures.
Based on the values obtained by the 3D analysis, a wide series of biomolecules directly used in the biochemical experiment, both in vitro and in vivo, and listed in Table 1, were tested in complex with a fixed concentration of 10 μM of both probes, to measure any possible cross reaction signal.

[3] = system: U87MG glioblastoma cells; test: Fluorescent microscopy of probe in cells; format: cell-based, human; settings: 10 µM; for fluorescence in cells: 2 h
Protocol: In total, 20,000 cells/ml of U87MG, HEK293T, hASTRO and 4T1 were seeded onto glass cover slips in 24-well plates. The cells incubated at 37 °C in a 5% CO2 atmosphere overnight. Cells were washed with 1 ml of PBS buffer two times, then a 10 μM solution of probes was added to each well for 2 h. For nuclei staining, 1 µg/ml of DAPI was added the last 15 min of treatment. The cover slips were removed and washed with PBS buffer, and fixed with 0.5 ml of 4% formaldehyde solution for 10 min. The cover slips were washed with 1 ml of PBS, then slides were prepared using Mounting Media (Merck Life Science). Fluorescence images were acquired using a Leica THUNDER Imager 3D Live Cell (Leica Microsystems, Wetzlar, Germany) microscope equipped with an S Fluor 40×/1.3 objective using the LAS X software.

Structure (SMILES)	inhibition of ALDH1A3 [1]	mechanism of action (inhibition) [1]	Ki ([1]; acetaldehyde substrate, full competitive model) [µM]	probe fluorescence intensity (normalized) ([2]; listed as probe B)	reduction of the fluorescence signal with ALDH1A2 compared to ALDH1A3 [2] [folds]	fluorescence in cells [3]	If ROI ([3]; U87-MG, 2 h (Fig. 5g))	probe fluorescence intensity (normalized) ([2]; listed as probe A)
COc1cc(/C=C/C(O)=C/C(=O)/C=C/c2ccc(OCc3cn(CCOc4ccc(C=O)cc4)nn3)c(OC)c2)ccc1O [Probe 10]	strongly inhibited	competitive	0.88	4.479 and 4.412 and 3.9708	~4	can determine fluorescence	238.82 a.u. and 283.69 a.u. and 302.7 a.u. and 195.53 a.u. and 182.63 a.u.	
CCOC(=O)Cn1cc(COc2ccc(/C=C/C(=O)/C=C(O)/C=C/c3ccc(O)c(OC)c3)cc2OC)nn1 [Probe 11]	no inhibitory effect				6	fluorescence has been observed using Probe 11 only in U87MG cell lines		5.638 and 5.434 and 5.428
